Measured values reported in PubChem BioAssay AID248 (DTP/NCI, 2004).
Inconclusive results and toxic doses are left out. Square brackets hold non-standard residues; d marks the D form. Peptide text beside a SMILES is read from it. * marks the point of attachment. ξ: configuration not given here. Octanoyl = CCCCCCCC(=O)*; ξP = O=C(O)C1CCCN1

Test system: L1210 leukemia ip in BDF1 mice, survival T/C
Experiment: NCI In Vivo Anticancer Drug Screen. Data for tumor model L1210 Leukemia (intraperitoneal) in B6D2F1 (BDF1) mice
Settings: endpoint: mean survival time, higher = longer survival
Outline: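 Transplanted-tumor mice were given test agent; controls received vehicle only. Survival readings from the two groups were divided (treated over control).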

[1] = dose: 100.0 mg/kg/injection, schedule: Q01DX009 (ip), vehicle: saline
[2] = dose: 200.0 mg/kg/injection, schedule: Q01DX009 (ip), vehicle: saline
[3] = dose: 400.0 mg/kg/injection, schedule: Q01DX009 (ip), vehicle: saline
[4] = dose: 100.0 mg/kg/injection, schedule: Q01DX009 (ip), vehicle: Klucel (hydroxypropylcellulose) (HPC)
[5] = dose: 200.0 mg/kg/injection, schedule: Q01DX009 (ip), vehicle: Klucel (hydroxypropylcellulose) (HPC)
[6] = dose: 400.0 mg/kg/injection, schedule: Q01DX009 (ip), vehicle: Klucel (hydroxypropylcellulose) (HPC)
[7] = dose: 5.0 mg/kg/injection, schedule: Q01DX001 (ip), vehicle: saline
[8] = dose: 10.0 mg/kg/injection, schedule: Q01DX001 (ip), vehicle: saline
[9] = dose: 20.0 mg/kg/injection, schedule: Q01DX001 (ip), vehicle: saline
[10] = dose: 25.0 mg/kg/injection, schedule: Q01DX009 (ip), vehicle: saline
[11] = dose: 100.0 mg/kg/injection, schedule: Q01DX001 (ip), vehicle: saline
[12] = dose: 200.0 mg/kg/injection, schedule: Q01DX001 (ip), vehicle: saline
[13] = dose: 400.0 mg/kg/injection, schedule: Q01DX001 (ip), vehicle: saline
[14] = dose: 100.0 mg/kg/injection, schedule: Q01DX009 (ip), vehicle: saline with Tween-80
[15] = dose: 100.0 mg/kg/injection, schedule: Q01DX001 (ip), vehicle: carboxymethylcellulose (CMC)
[16] = dose: 200.0 mg/kg/injection, schedule: Q01DX001 (ip), vehicle: carboxymethylcellulose (CMC)
[17] = dose: 400.0 mg/kg/injection, schedule: Q01DX001 (ip), vehicle: carboxymethylcellulose (CMC)
[18] = dose: 100.0 mg/kg/injection, schedule: Q04DX003 (ip), vehicle: Klucel (hydroxypropylcellulose) (HPC)
[19] = dose: 200.0 mg/kg/injection, schedule: Q04DX003 (ip), vehicle: Klucel (hydroxypropylcellulose) (HPC)
[20] = dose: 400.0 mg/kg/injection, schedule: Q04DX003 (ip), vehicle: Klucel (hydroxypropylcellulose) (HPC)
[21] = dose: 100.0 mg/kg/injection, schedule: Q04DX003 (ip), vehicle: saline with Tween-80
[22] = dose: 200.0 mg/kg/injection, schedule: Q01DX009 (ip), vehicle: saline with Tween-80
[23] = dose: 200.0 mg/kg/injection, schedule: Q04DX003 (ip), vehicle: saline with Tween-80
[24] = dose: 400.0 mg/kg/injection, schedule: Q04DX003 (ip), vehicle: saline with Tween-80
[25] = dose: 100.0 mg/kg/injection, schedule: Q04DX002 (ip), vehicle: Klucel (hydroxypropylcellulose) (HPC)
[26] = dose: 200.0 mg/kg/injection, schedule: Q04DX002 (ip), vehicle: Klucel (hydroxypropylcellulose) (HPC)
[27] = dose: 400.0 mg/kg/injection, schedule: Q04DX002 (ip), vehicle: Klucel (hydroxypropylcellulose) (HPC)
[28] = dose: 50.0 mg/kg/injection, schedule: Q01DX009 (ip), vehicle: saline

## COc1cc(N)c2ncccc2c1SC
[1]
  T/C: 108 % of control
dose: 100.0 mg/kg/injection, schedule: Q04DX003 (ip), vehicle: saline
  T/C: 93 % of control
[2]
  T/C: 107 % of control
dose: 200.0 mg/kg/injection, schedule: Q04DX003 (ip), vehicle: saline
  T/C: 95 % of control
[3]
  T/C: 116 % of control
dose: 400.0 mg/kg/injection, schedule: Q04DX003 (ip), vehicle: saline
  T/C: 102 % of control

## CCCCCCCC(=O)N1CCCC1C(=O)NCC(=O)NCC(=O)O (stereo not drawn) (Octanoyl-[ξP]-Gly-Gly-OH)
dose: 100.0 mg/kg/injection, schedule: Q01DX001 (ip), vehicle: Klucel (hydroxypropylcellulose) (HPC)
  T/C: 115 % of control
dose: 200.0 mg/kg/injection, schedule: Q01DX001 (ip), vehicle: Klucel (hydroxypropylcellulose) (HPC)
  T/C: 95 % of control
dose: 400.0 mg/kg/injection, schedule: Q01DX001 (ip), vehicle: Klucel (hydroxypropylcellulose) (HPC)
  T/C: 95 % of control

## CCOC(=O)Nc1ccc(NC(C)=O)cc1
[4]
  T/C: 104 % of control
[5]
  T/C: 98 % of control
[6]
  T/C: 93 % of control

## O=[N+]([O-])c1c(Cl)nc2ccccn12
dose: 3.13 mg/kg/injection, schedule: Q01DX009 (ip), vehicle: saline
  T/C: 93 % of control
[7]
  T/C: 100 % of control
dose: 6.25 mg/kg/injection, schedule: Q01DX009 (ip), vehicle: saline
  T/C: 95 % of control
[8]
  T/C: 98 % of control
dose: 12.5 mg/kg/injection, schedule: Q01DX009 (ip), vehicle: saline
  T/C: 93 % of control
[9]
  T/C: 100 % of control
[10]
  T/C: 93 % of control
dose: 40.0 mg/kg/injection, schedule: Q01DX001 (ip), vehicle: saline
  T/C: 96 % of control
dose: 80.0 mg/kg/injection, schedule: Q01DX001 (ip), vehicle: saline
  T/C: 93 % of control
[11]
  T/C: 101 % of control
[12]
  T/C: 110 % of control
[13]
  T/C: 108 % of control

## NC(CCSC(c1ccccc1)c1ccccc1)C(=O)O (centres undefined)
[11]
  T/C: 101 % of control
[12]
  T/C: 97 % of control
[13]
  T/C: 97 % of control

## COc1ccccc1C1CCCC2C(Oc3ccc([N+](=O)[O-])cc3)OC12 (centres undefined)
dose: 50.0 mg/kg/injection, schedule: Q01DX009 (ip), vehicle: saline with Tween-80
  T/C: 87 % of control
[14]
  T/C: 100 % of control

## NNC(=O)C12CCCCC1CCC2 (centres undefined)
dose: 100.0 mg/kg/injection, schedule: Q01DX009 (ip), vehicle: acetone
  T/C: 88 % of control
dose: 100.0 mg/kg/injection, schedule: Q04DX003 (ip), vehicle: acetone
  T/C: 100 % of control
dose: 200.0 mg/kg/injection, schedule: Q04DX003 (ip), vehicle: acetone
  T/C: 100 % of control
dose: 400.0 mg/kg/injection, schedule: Q01DX009 (ip), vehicle: acetone
  T/C: 87 % of control
dose: 400.0 mg/kg/injection, schedule: Q04DX003 (ip), vehicle: acetone
  T/C: 105 % of control

## COc1cccc(NC(=S)NNC(=S)NNc2ccccc2)c1
[4]
  T/C: 108 % of control
[5]
  T/C: 100 % of control
[6]
  T/C: 100 % of control

## COc1ccc(N(C)CC(O)CN)cc1 (centres undefined)
[11]
  T/C: 108 % of control
[12]
  T/C: 104 % of control

## O=C(O)c1cc2ccc3ccccc3c2oc1=O
[15]
  T/C: 87 % of control
[16]
  T/C: 92 % of control
[17]
  T/C: 92 % of control

## O=C(Nc1ccccc1C(=O)N/N=C/c1cccc(O)c1)c1ccccc1
[4]
  T/C: 103 % of control
[5]
  T/C: 89 % of control
[6]
  T/C: 97 % of control

## O=c1[nH]nc(SCc2ccccc2)c(=O)[nH]1
[11]
  T/C: 108 % of control
[12]
  T/C: 92 % of control
[13]
  T/C: 109 % of control

## O/N=C(/C=C(/C(=C/C(=N/O)c1ccccc1)c1ccccc1)c1ccccc1)c1ccccc1
dose: 50.0 mg/kg/injection, schedule: Q01DX009 (ip), vehicle: Klucel (hydroxypropylcellulose) (HPC)
  T/C: 102 % of control
[4]
  T/C: 94 % of control
[5]
  T/C: 87 % of control

## NC(=O)N=C(N)N
[11]
  T/C: 92 % of control
[12]
  T/C: 90 % of control
[13]
  T/C: 92 % of control

## CCCC(C(=O)c1ccc(OC)cc1)C(O)(C(F)(F)F)C(F)(F)F (centres undefined)
[18]
  T/C: 91 % of control
[19]
  T/C: 98 % of control
[20]
  T/C: 100 % of control

## CCOc1ccc(NC(=O)C=O)cc1
[4]
  T/C: 92 % of control
[18]
  T/C: 94 % of control
[5]
  T/C: 103 % of control
[19]
  T/C: 94 % of control
[6]
  T/C: 105 % of control
[20]
  T/C: 97 % of control

## OC(CBr)c1ccc(Cl)cc1 (centres undefined)
[14]
  T/C: 96 % of control
[21]
  T/C: 98 % of control
[22]
  T/C: 96 % of control
[23]
  T/C: 104 % of control
[24]
  T/C: 89 % of control

## COc1ccc(OC(=O)Nc2ccc(OC)cc2Cl)cc1
[25]
  T/C: 96 % of control
[26]
  T/C: 107 % of control
[27]
  T/C: 100 % of control

## COc1ccc(/C=C/C(=N\O)c2ccc(OC)c(OC)c2)cc1OC
[10]
  T/C: 86 % of control
[28]
  T/C: 98 % of control
[1]
  T/C: 98 % of control
[2]
  T/C: 100 % of control
[3]
  T/C: 98 % of control

## NC(=S)Nc1ccc(C23CCC(CC2)CC3)cc1
[28]
  T/C: 105 % of control
[1]
  T/C: 105 % of control
[2]
  T/C: 102 % of control

## CCCCc1ccc(C(=O)O)nc1.[Cu+2]
[7]
  T/C: 97 % of control
[8]
  T/C: 105 % of control
[9]
  T/C: 106 % of control

## CCCCOC(OCCCC)C(C)=O
[4]
  T/C: 96 % of control
[18]
  T/C: 113 % of control
[5]
  T/C: 96 % of control
[19]
  T/C: 92 % of control
[6]
  T/C: 101 % of control
[20]
  T/C: 102 % of control

## C=CCc1ccc(OCCOCCN(C/C=C(\C)CCC=C(C)C)C/C=C(\C)CCC=C(C)C)c(OC)c1
dose: 25.0 mg/kg/injection, schedule: Q04DX002 (ip), vehicle: Klucel (hydroxypropylcellulose) (HPC)
  T/C: 108 % of control
dose: 50.0 mg/kg/injection, schedule: Q04DX002 (ip), vehicle: Klucel (hydroxypropylcellulose) (HPC)
  T/C: 96 % of control
[25]
  T/C: 99 % of control

## Clc1ccc(CSSCc2ccc(Cl)cc2)cc1
[25]
  T/C: 95 % of control
[26]
  T/C: 110 % of control
[27]
  T/C: 100 % of control

## NC(CSC(c1ccccc1)(c1ccccc1)c1ccc(Cl)cc1)C(=O)O (centres undefined)
dose: 1.3 mg/kg/injection, schedule: Q01DX009 (ip), vehicle: saline
  T/C: 100 % of control
dose: 2.0 mg/kg/injection, schedule: Q01DX009 (ip), vehicle: saline
  T/C: 118 % of control
dose: 6.25 mg/kg/injection, schedule: Q01DX009 (ip), vehicle: acetone
  T/C: 151 % of control
dose: 12.5 mg/kg/injection, schedule: Q01DX009 (ip), vehicle: acetone
  T/C: 156 % of control
dose: 12.5 mg/kg/injection, schedule: Q01DX009 (ip), vehicle: other
  T/C: 163 % of control

## COc1ccc(Nc2nc(N)nc(CNc3ccc(C)cc3)n2)cc1
[21]
  T/C: 94 % of control
[23]
  T/C: 92 % of control
[24]
  T/C: 96 % of control

## O=C(Nc1ccc(Cl)c(Cl)c1)OCn1ncc2ccc([N+](=O)[O-])cc21
[12]
  T/C: 96 % of control
[13]
  T/C: 100 % of control

## Nc1nc(Nc2ccc(NC=O)cc2)c(NC=O)c(=O)[nH]1
dose: 50.0 mg/kg/injection, schedule: Q01DX001 (ip), vehicle: saline
  T/C: 89 % of control
[12]
  T/C: 86 % of control

## Nc1cncc(Br)c1NCCc1ccccc1
[15]
  T/C: 103 % of control
[16]
  T/C: 97 % of control
[17]
  T/C: 101 % of control

## Cc1cc(Cl)c(Cl)cc1NC(=O)Nc1cccc(F)c1
[14]
  T/C: 94 % of control
[22]
  T/C: 100 % of control
dose: 400.0 mg/kg/injection, schedule: Q01DX009 (ip), vehicle: saline with Tween-80
  T/C: 94 % of control

## BrP(Nc1cccc(NP(Br)(c2ccccc2)(c2ccccc2)c2ccccc2)c1)(c1ccccc1)(c1ccccc1)c1ccccc1
[8]
  T/C: 99 % of control
[9]
  T/C: 99 % of control
